Laboratory results: patent publication EP0408973B1, “Antiherpes pentapeptides” (BIO-MEGA/BOEHRINGER INGELHEIM RESEARCH INC., priority 1989, dated 1991)
Starred links: 1 amine or outer side, 2 acyl side, 3 side chain; linkers in the order of their positions; H or OH if unused. Non-standard residues stand in square brackets, D forms with d. Residues, ends and D or L forms follow the SMILES beside them. *: point of attachment. Ala(1H-tetrazol-5-yl) = N[C@@H](Cc1nnn[nH]1)C(=O)O; X1 = CC(C)[C@@H](C(=O)[*:2])N(CCc1ccccc1)[*:1]; Benzoyl(2-Ph) = O=C(c1ccccc1-c1ccccc1)*; Desaminotyrosyl = O=C(CCc1ccc(O)cc1)*; Butanoyl(4-Ph) = O=C(CCCc1ccccc1)*; Hydrocinnamoyl = O=C(CCc1ccccc1)*; Pentanoyl(4-Me) = CC(C)CCC(=O)*; X3 = CC(C)C[C@H](N*)c1nnn[nH]1; X2 = O=C(c1ccccc1Cc1ccccc1)*; NMeV = CN[C@H](C(=O)O)C(C)C

molecular target: HSV-1 ribonucleotide reductase (Human herpesvirus 1, UniProt P08543); assay: biochemical
Source text: Inhibition of Herpes Simplex Virus (HSV, type 1) Ribonucleotide Reductase
• a) Preparation of Enzyme HSV-1 ribonucleotide reductase (partially purified) was obtained from quiescent BHK-21/C13 cells infected with strain F HSV-1 virus at 10 plaque forming units/cell as described by E.A. Cohen et al., J. Gen. […] The number of units of the enzyme preparation used in each assay was constant, based on the specific activity of the enzyme preparation.

HSV-1 ribonucleotide reductase, sequence (P08543 whole entry): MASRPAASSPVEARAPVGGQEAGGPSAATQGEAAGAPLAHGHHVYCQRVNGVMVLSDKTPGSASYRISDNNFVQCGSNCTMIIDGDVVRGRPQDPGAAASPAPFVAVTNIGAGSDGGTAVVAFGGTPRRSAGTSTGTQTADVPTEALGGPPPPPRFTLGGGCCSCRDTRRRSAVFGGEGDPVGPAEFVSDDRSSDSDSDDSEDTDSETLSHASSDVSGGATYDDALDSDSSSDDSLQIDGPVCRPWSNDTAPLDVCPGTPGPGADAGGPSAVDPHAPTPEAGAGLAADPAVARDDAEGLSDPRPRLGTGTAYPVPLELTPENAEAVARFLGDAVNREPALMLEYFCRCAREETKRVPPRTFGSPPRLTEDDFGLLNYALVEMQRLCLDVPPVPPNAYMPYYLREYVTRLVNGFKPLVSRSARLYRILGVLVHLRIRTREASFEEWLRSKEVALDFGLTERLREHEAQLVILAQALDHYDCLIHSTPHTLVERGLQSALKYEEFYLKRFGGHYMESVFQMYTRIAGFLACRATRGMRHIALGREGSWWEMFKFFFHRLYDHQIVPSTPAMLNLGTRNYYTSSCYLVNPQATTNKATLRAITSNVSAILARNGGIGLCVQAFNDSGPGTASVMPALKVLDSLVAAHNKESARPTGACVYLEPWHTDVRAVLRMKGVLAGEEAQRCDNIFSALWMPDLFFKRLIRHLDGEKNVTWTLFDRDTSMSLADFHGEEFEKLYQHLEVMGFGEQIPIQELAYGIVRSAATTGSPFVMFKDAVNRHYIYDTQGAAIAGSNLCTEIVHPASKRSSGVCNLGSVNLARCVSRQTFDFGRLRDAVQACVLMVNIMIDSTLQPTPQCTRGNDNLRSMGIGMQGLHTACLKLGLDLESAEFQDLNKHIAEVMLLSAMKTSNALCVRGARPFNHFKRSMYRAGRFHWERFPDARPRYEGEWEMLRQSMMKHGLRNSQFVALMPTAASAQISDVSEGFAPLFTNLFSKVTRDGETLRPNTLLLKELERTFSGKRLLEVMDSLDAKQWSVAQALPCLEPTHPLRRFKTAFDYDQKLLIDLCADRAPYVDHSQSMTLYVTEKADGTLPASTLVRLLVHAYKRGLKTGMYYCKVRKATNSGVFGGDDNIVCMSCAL

| Structure (SMILES) | IC50 [µM] |
| --- | --- |
| CC[C@H](C)[C@H](NC(=O)[C@H](C(C)C)N(C)C(=O)CCc1ccccc1)C(=O)N[C@@H](Cc1nnn[nH]1)C(=O)N[C@@H](CC(=O)O)C(=O)N[C@@H](CC(C)C)C(=O)O [PhCH2CH2CO / CH3 / 5-1H-t / COOH, PhCH2CH2CO-N-Me-Val-Ile-NHCH[CH2-5-1H-tetrazole]CO-Asp-Leu-OH] (Hydrocinnamoyl-[NMeV]I[Ala(1H-tetrazol-5-yl)]DL-OH) | 2 |
| CC[C@H](C)[C@H](NC(=O)[C@H](C(C)C)N(C)C(=O)c1ccccc1Cc1ccccc1)C(=O)N[C@@H](CC(N)=O)C(=O)N[C@@H](CC(=O)O)C(=O)N[C@@H](CC(C)C)C(=O)O (X2-[NMeV]INDL-OH) | 5.5 |
| CC[C@H](C)[C@H](NC(=O)[C@H](C(C)C)N(C)C(=O)CCc1ccccc1)C(=O)N[C@@H](CC(N)=O)C(=O)N[C@@H](CC(=O)O)C(=O)N[C@@H](CC(C)C)c1nnn[nH]1 [PhCH2CH2CO / CH3 / CONH2 / 5-1H-t, PhCH,CH,CO-N-Me-Val-Ile-Asn-Asp-NHCH[CH2-CH(CH3)2]-5-1H-tetrazole] (Hydrocinnamoyl-[NMeV]IND-X3) | 3.8 |
| CC[C@H](C)[C@H](NC(=O)[C@H](C(C)C)N(CCc1ccccc1)C(C)=O)C(=O)N[C@@H](CC(N)=O)C(=O)N[C@@H](CC(=O)O)C(=O)N[C@@H](CC(C)C)C(=O)O [CH3CO / PhCH2CH2 / CONH2 / COOH] (Ac-[X1]INDL-OH) | 17 |
| CC[C@H](C)[C@H](NC(=O)[C@H](C(C)C)N(C)C(=O)CCCc1ccccc1)C(=O)N[C@@H](CC(N)=O)C(=O)N[C@@H](CC(=O)O)C(=O)N[C@@H](CC(C)C)C(=O)O [PhCH2CH2CH2CO / CH3 / CONH2 / COOH] ({Butanoyl(4-Ph)}-[NMeV]INDL-OH) | 6.2 |
| CC[C@H](C)[C@H](NC(=O)[C@H](C(C)C)N(C)C(=O)CCc1ccc(O)cc1)C(=O)N[C@@H](CC(N)=O)C(=O)N[C@@H](CC(=O)O)C(=O)N[C@@H](CC(C)C)C(=O)O [DAT / CH3 / CONH2 / COOH, DAT-N-Me-Val-Ile-Asn-Asp-Leu-OH] (Desaminotyrosyl-[NMeV]INDL-OH) | 6 |
| CC[C@H](C)[C@H](NC(=O)[C@H](C(C)C)N(C)C(=O)c1ccccc1-c1ccccc1)C(=O)N[C@@H](CC(N)=O)C(=O)N[C@@H](CC(=O)O)C(=O)N[C@@H](CC(C)C)C(=O)O ({Benzoyl(2-Ph)}-[NMeV]INDL-OH) | 2.5 |
| CC[C@H](C)[C@H](NC(=O)[C@H](C(C)C)N(C)C(=O)CCC(C)C)C(=O)N[C@@H](CC(N)=O)C(=O)N[C@@H](CC(=O)O)C(=O)N[C@@H](CC(C)C)C(=O)O [(CH3)2CHCH2CH2CO / CH3 / CONH2 / COOH] ({Pentanoyl(4-Me)}-[NMeV]INDL-OH) | 7.6 |
